Data: patent publication US7396946B2, “Compound for treatment of external secretion disorders” (Sucampo AG, priority 1999, dated 2008)

Test system: normal rabbits
Assay: Effect on whole tear secretion of normal rabbits, rate of increase (Test Example 5)
Type: in vivo, Male Japanese albino rabbits
Settings: 30 μl/eye single, 2 hours after the instillation compared with before (0 hour), 4 eyes
Experimental: Male Japanese albino rabbits were used.
(2) Method of Administration
Ophthalmic solution comprising an active ingredient of the present invention was prepared and used as a test composition.
Each of the compositions was instilled to the eye singly at the amount of 30 μl/eye.
Amount of the Tear Secretion
Before (0 hour) and 2 hours after the instillation, the whole tear secretion was determined.
Under no anesthetization, one edge of the Schirmer's test strip (Showa Yakuhin Kako Co., Ltd.) was inserted into the conjunctival sac of the each test animal. One minute after, the strip was removed and the length of the moisted part was read from the scale provided on the strip to determine the amount of whole tear secretion.
The rate (%) of increased amount of whole tear secretion was calculated at the 2 hours after the instillation compared with the before (0 hour).

CCCCCC(=O)CC[C@H]1[C@H](O)CC(=O)[C@@H]1CCCCCCC(=O)O [Compound 6, 13,14-dihydro-15-keto-PGE1] was tested, and the “Rate of the increased whole tear secretion” value (100 μg/ml ophthalmic solution) was 44.0%.
In the case of “2-decarboxy-2-(2-carboxyethyl)-13,14-dihydro difluoro-PGE1 [Compound 3]”, the “Rate of the increased whole tear secretion” value (10 μg/ml ophthalmic solution) is reported as 52.0%.
In the case of CCCC(F)(F)C(=O)C=CCC1C(O)CC(=O)C1CCCCCCC(=O)OC (centres unmarked) [Compound 1, 15-dehydroxy-13,14-dihydro-14,15-dehydro-16keto-17,17-difluoro-PGE1-methyl ester], the “Rate of the increased whole tear secretion” value (30 μg/ml ophthalmic solution) is reported as 40.7%.
In the case of CCCCC(F)(F)C(=O)CCC1C(O)CC(=O)C1C/C=C\CCCC(=O)O (centres unmarked) [Compound 8, 13,14-dihydro-15-keto-16,16-difluoro-PGE2], the “Rate of the increased whole tear secretion” value (1 μg/ml ophthalmic solution) is reported as 24.8%.
For CCCCC(F)(F)C(=O)CCC1C(O)CC(O)C1C/C=C\CCCC(=O)OC (centres unmarked) [Compound 4, 13,14-dihydro-15-keto-16,16-difluoro-PGF2a-Methyl ester], the “Rate of the increased whole tear secretion” value (3 ug/ml ophthalmic solution) was 61.8%.
For CCCCCCC(F)(F)C(=O)CCC1C(O)CC(=O)C1CCCCCCCCC(=O)OC(C)C (centres unmarked) [Compound 7, 2-decarboxy-2-(2-carboxyethyl)-13,14-dihydro 15-keto-16,16-difluoro-20-ethyl-PGE1-isopropyl ester], the “Rate of the increased whole tear secretion” value (2O00 μg/ml ophthalmic solution) was 56.9%.
For CCCCCCC(F)(F)C(=O)CCC1C(O)CC(=O)C1CCCCCCC(=O)O (centres unmarked) [Compound 2, 13,14-dihydro-15-keto-16,16-difluoro-20-ethyl-PGE1], the “Rate of the increased whole tear secretion” value (10 μg/ml ophthalmic solution) was 52.5%.
CCCCC(F)(F)C(=O)CCC1CCC(=O)C1CCCCCCC(=O)O (centres unmarked) [Compound 5, 11-dehydroxy-13,14-dihydro-15-keto-16,16-difluoro-PGE1] was tested, and the “Rate of the increased whole tear secretion” value (3 ug/ml ophthalmic solution) was 43.5%.
